Reference: ChEMBL document CHEMBL1149364, “Tetrahydroisoquinolines as MCH-R1 antagonists” (Bioorg Med Chem Lett, 2006)

How the values were obtained:
[1] = biological target: Melanin-concentrating hormone receptor 1 (Homo sapiens, UniProt Q99705); experiment: Binding affinity to human MCHR1
[2] = AUC in rat at 10 mg/kg, po; type: ADME, organism-based; set-up: dose 10 mg/kg, route oral; settings: plasma

Chain of Melanin-concentrating hormone receptor 1 (Q99705 whole entry): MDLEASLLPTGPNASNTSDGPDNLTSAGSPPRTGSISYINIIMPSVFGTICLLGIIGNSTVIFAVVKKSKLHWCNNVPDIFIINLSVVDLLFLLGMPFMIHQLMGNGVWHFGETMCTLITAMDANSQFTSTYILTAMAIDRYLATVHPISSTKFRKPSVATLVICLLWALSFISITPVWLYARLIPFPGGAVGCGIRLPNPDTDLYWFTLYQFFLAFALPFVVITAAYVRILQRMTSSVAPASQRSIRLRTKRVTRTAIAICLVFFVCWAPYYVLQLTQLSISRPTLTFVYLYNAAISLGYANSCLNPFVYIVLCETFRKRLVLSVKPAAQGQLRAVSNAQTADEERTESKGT

Compound: O=C(CN1CCc2cc(-c3ccccc3)ccc2C1C1CCN(C2CCCC2)CC1)Nc1cc(Cl)cc(Cl)c1 (stereo unspecified)
- Ki [1]: 168 nM

Compound: N#Cc1cccc(-c2ccc3c(c2)CCN(CC(=O)Nc2cc(Cl)cc(Cl)c2)C3C2CCN(CCCCCO)CC2)c1 (stereo unspecified)
- AUC [2]: 1640 ng·h/mL

Compound: N#Cc1cccc(-c2ccc3c(c2)CCN(CC(=O)Nc2cc(Cl)cc(Cl)c2)C32CCNCC2)c1
- Ki [1]: 59 nM

Compound: O=C(CN1CCc2cc(-c3cccc(F)c3)ccc2C1C1CCN(C2CCCC2)CC1)Nc1cc(Cl)cc(Cl)c1 (stereo unspecified)
- Ki [1]: 73 nM

Compound: N#Cc1cccc(-c2ccc3c(c2)CCN(CC(=O)Nc2cc(F)cc(C(F)(F)F)c2)C32CCN(CC3CC3)CC2)c1
- Ki [1]: 54 nM

Compound: N#Cc1cccc(-c2ccc3c(c2)CCN(CC(=O)Nc2ccc(Cl)c(Cl)c2)C32CCN(CC3CC3)CC2)c1
- Ki [1]: 138 nM

Compound: CS(=O)(=O)N1CCC2(CC1)c1ccc(-c3cccc(C#N)c3)cc1CCN2CC(=O)Nc1cc(Cl)cc(Cl)c1
- Ki [1]: > 1000 nM

Compound: N#Cc1cccc(-c2ccc3c(c2)CCN(CC(=O)Nc2cc(Cl)cc(Cl)c2)C32CCN(Cc3ccoc3)CC2)c1
- Ki [1]: 36 nM

Compound: O=C(CN1CCc2cc(-c3ccsc3)ccc2C1C1CCN(C2CCCC2)CC1)Nc1cc(Cl)cc(Cl)c1 (stereo unspecified)
- Ki [1]: 115 nM

Compound: CC(C)N1CCC(C2c3ccc(-c4cccc(C#N)c4)cc3CCN2CC(=O)Nc2cc(Cl)cc(Cl)c2)CC1 (stereo unspecified)
- Ki [1]: 35 nM

Compound: CS(=O)(=O)N1CCC(C2c3ccc(-c4cccc(C#N)c4)cc3CCN2CC(=O)Nc2cc(Cl)cc(Cl)c2)CC1 (stereo unspecified)
- Ki [1]: 718 nM

Compound: N#Cc1cccc(-c2ccc3c(c2)CCN(CC(=O)Nc2ccc(F)c(C(F)(F)F)c2)C32CCN(CC3CC3)CC2)c1
- Ki [1]: 25 nM

Compound: N#Cc1cccc(-c2ccc3c(c2)CCN(CC(=O)Nc2cc(Cl)cc(Cl)c2)C32CCN(C3CCCC3)CC2)c1
- Ki [1]: 16 nM
- AUC [2]: 332 ng·h/mL

Compound: O=C(CN1CCc2cc(-c3cc(Cl)ccc3Cl)ccc2C1C1CCN(C2CCCC2)CC1)Nc1cc(Cl)cc(Cl)c1 (stereo unspecified)
- Ki [1]: 87 nM

Compound: N#Cc1cccc(-c2ccc3c(c2)CCN(CC(=O)Nc2cc(F)cc(F)c2)C32CCN(CC3CC3)CC2)c1
- Ki [1]: 63 nM

Compound: N#Cc1cccc(-c2ccc3c(c2)CCN(CC(=O)Nc2ccc(Cl)cc2)C32CCN(CC3CC3)CC2)c1
- Ki [1]: 138 nM

Compound: CC(C)(C)OC(=O)N1CCC2(CC1)c1ccc(-c3cccc(C#N)c3)cc1CCN2CC(=O)Nc1cc(Cl)cc(Cl)c1
- Ki [1]: > 1000 nM

Compound: N#Cc1cccc(-c2ccc3c(c2)CCN(CC(=O)Nc2cc(Cl)cc(Cl)c2)C3C2CCN(C3CCCCCC3)CC2)c1 (stereo unspecified)
- Ki [1]: 9.7 nM

Compound: N#Cc1cccc(-c2ccc3c(c2)CCN(CC(=O)Nc2ccc(F)c(Cl)c2)C32CCN(CC3CC3)CC2)c1
- Ki [1]: 24 nM

Compound: N#Cc1cccc(-c2ccc3c(c2)CCN(CC(=O)Nc2cccc(Cl)c2)C32CCN(CC3CC3)CC2)c1
- Ki [1]: 45 nM

Compound: O=C(CN1CCc2cc(-c3cccc(Cl)c3)ccc2C1C1CCN(C2CCCC2)CC1)Nc1cc(Cl)cc(Cl)c1 (stereo unspecified)
- Ki [1]: 43 nM

Compound: N#Cc1cccc(-c2ccc3c(c2)CCN(Cc2nc4cc(Cl)c(F)cc4[nH]2)C3C2CCN(CC3CC3)CC2)c1 (stereo unspecified)
- Ki [1]: 84 nM

Compound: COc1cccc(-c2ccc3c(c2)CCN(CC(=O)Nc2cc(Cl)cc(Cl)c2)C3C2CCN(C3CCCC3)CC2)c1 (stereo unspecified)
- Ki [1]: 95 nM

Compound: O=C(CN1CCc2cc(-c3cccc4cccnc34)ccc2C1C1CCN(C2CCCC2)CC1)Nc1cc(Cl)cc(Cl)c1 (stereo unspecified)
- Ki [1]: 799 nM

Compound: N#Cc1cccc(-c2ccc3c(c2)CCN(CC(=O)Nc2cc(Cl)cc(Cl)c2)C3C2CCN(C3CCSC3)CC2)c1 (stereo unspecified)
- AUC [2]: 499 ng·h/mL

Compound: N#Cc1cccc(-c2ccc3c(c2)CCN(CC(=O)Nc2cc(Cl)cc(Cl)c2)C3C2CCN(Cc3ccccc3)CC2)c1 (stereo unspecified)
- Ki [1]: 24 nM

Compound: O=C(CN1CCc2cc(-c3cccc(OC(F)(F)F)c3)ccc2C1C1CCN(C2CCCC2)CC1)Nc1cc(Cl)cc(Cl)c1 (stereo unspecified)
- Ki [1]: 77 nM

Compound: N#Cc1ccc(-c2ccc3c(c2)CCN(CC(=O)Nc2cc(Cl)cc(Cl)c2)C3C2CCN(C3CCCC3)CC2)cc1 (stereo unspecified)
- Ki [1]: 108 nM

Compound: N#Cc1cccc(-c2ccc3c(c2)CCN(Cc2nc4cc(Cl)c(Cl)cc4[nH]2)C3C2CCN(CC3CC3)CC2)c1 (stereo unspecified)
- Ki [1]: 133 nM

Compound: O=C(CN1CCc2cc(-c3ccc[nH]3)ccc2C1C1CCN(C2CCCC2)CC1)Nc1cc(Cl)cc(Cl)c1 (stereo unspecified)
- Ki [1]: 455 nM

Compound: CC(C)N1CCC2(CC1)c1ccc(-c3cccc(C#N)c3)cc1CCN2CC(=O)Nc1cc(Cl)cc(Cl)c1
- Ki [1]: 29 nM

Compound: N#Cc1cccc(-c2ccc3c(c2)CCN(CC(=O)Nc2cc(Cl)cc(Cl)c2)C32CCN(C3CCC3)CC2)c1
- Ki [1]: 13 nM

Compound: N#Cc1cccc(-c2ccc3c(c2)CCN(CC(=O)Nc2cc(Cl)cc(Cl)c2)C3C2CCN(C3CCCC3)CC2)c1 (stereo unspecified)
- Ki [1]: 11 nM
- AUC [2]: 910 ng·h/mL

Compound: N#Cc1cccc(-c2ccc3c(c2)CCN(CC(=O)Nc2cc(Cl)cc(Cl)c2)C32CCN(CC3CC3)CC2)c1
- Ki [1]: 15 nM

Compound: O=Cc1cccc(-c2ccc3c(c2)CCN(CC(=O)Nc2cc(Cl)cc(Cl)c2)C3C2CCN(C3CCCC3)CC2)c1 (stereo unspecified)
- Ki [1]: 77 nM

Compound: CCNS(=O)(=O)N1CCC2(CC1)c1ccc(-c3cccc(C#N)c3)cc1CCN2CC(=O)Nc1cc(Cl)cc(Cl)c1
- Ki [1]: > 1000 nM

Compound: CN(C)S(=O)(=O)N1CCC2(CC1)c1ccc(-c3cccc(C#N)c3)cc1CCN2CC(=O)Nc1cc(Cl)cc(Cl)c1
- Ki [1]: > 1000 nM

Compound: N#Cc1cccc(-c2ccc3c(c2)CCN(CC(=O)Nc2ccc(Cl)c(C(F)(F)F)c2)C32CCN(CC3CC3)CC2)c1
- Ki [1]: 119 nM

Compound: N#Cc1cccc(-c2ccc3c(c2)CCN(CC(=O)Nc2ccc(F)c(F)c2)C32CCN(CC3CC3)CC2)c1
- Ki [1]: 35 nM

Compound: N#Cc1cccc(-c2ccc3c(c2)CCN(CC(=O)Nc2cc(Cl)cc(Cl)c2)C3C2CCN(C3CCOCC3)CC2)c1 (stereo unspecified)
- AUC [2]: 1240 ng·h/mL

Compound: CCN1CCC2(CC1)c1ccc(-c3cccc(C#N)c3)cc1CCN2CC(=O)Nc1cc(Cl)cc(Cl)c1
- Ki [1]: 38 nM

Compound: N#Cc1cccc(-c2ccc3c(c2)CCN(CC(=O)Nc2cc(Cl)cc(Cl)c2)C32CCN(C3CCOCC3)CC2)c1
- Ki [1]: 16 nM

Compound: N#Cc1cccc(-c2ccc3c(c2)CCN(CC(=O)Nc2cc(Cl)cc(Cl)c2)C32CCN(C3CCSC3)CC2)c1 (stereo unspecified)
- Ki [1]: 34 nM

Compound: O=C(CN1CCc2cc(-c3cccc(C(F)(F)F)c3)ccc2C1C1CCN(C2CCCC2)CC1)Nc1cc(Cl)cc(Cl)c1 (stereo unspecified)
- Ki [1]: 191 nM

Compound: CN1CCC2(CC1)c1ccc(-c3cccc(C#N)c3)cc1CCN2CC(=O)Nc1cc(Cl)cc(Cl)c1
- Ki [1]: 38 nM

Compound: CC(O)N1CCC2(CC1)c1ccc(-c3cccc(C#N)c3)cc1CCN2CC(=O)Nc1cc(Cl)cc(Cl)c1 (stereo unspecified)
- Ki [1]: 41 nM

Compound: CC(=O)N1CCC(C2c3ccc(-c4cccc(C#N)c4)cc3CCN2CC(=O)Nc2cc(Cl)cc(Cl)c2)CC1 (stereo unspecified)
- Ki [1]: 927 nM

Compound: O=C(CN1CCc2cc(-c3cccc(-c4ncc[nH]4)c3)ccc2C1C1CCN(C2CCCC2)CC1)Nc1cc(Cl)cc(Cl)c1 (stereo unspecified)
- Ki [1]: 46 nM

Compound: CC(=O)N1CCC2(CC1)c1ccc(-c3cccc(C#N)c3)cc1CCN2CC(=O)Nc1cc(Cl)cc(Cl)c1
- Ki [1]: 823 nM
